In ChEMBL document CHEMBL4177696, “Identification of a diverse synthetic abietane diterpenoid library and insight into the structure-activity relationships for antibacterial activity” (Bioorg Med Chem Lett, 2017) one finds MIC data, which are given here for 17 molecules.

Structures are written as SMILES. Values after ≈ are worked out from the molar mass of the structure shown.

Holding throughout (type): functional
One experiment relates to Pseudomonas fluorescens. The experiment in a line: Antibacterial activity against Pseudomonas fluorescens measured after 24 hrs.
In another experiment the test system is Staphylococcus aureus. The experiment in a line: Antibacterial activity against Staphylococcus aureus measured after 24 hrs.
For a further experiment, the system named is Escherichia coli. The experiment in a line: Antibacterial activity against Escherichia coli measured after 24 hrs.
The subject of a further experiment is Bacillus subtilis. The experiment in a line: Antibacterial activity against Bacillus subtilis measured after 24 hrs.

As a reminder, the MIC is the lowest concentration that inhibits growth of the organism.

With `COC(=O)[C@]1(C)CCC[C@]2(C)c3ccc(C(C)C)c(O)c3CC[C@@H]12`, the MIC in the experiment with Pseudomonas fluorescens came to 25 µg/mL (≈ 75.7 µM); with Staphylococcus aureus, 50 µg/mL (≈ 151 µM); with Escherichia coli it was 50 µg/mL (≈ 151 µM); with Bacillus subtilis, 75 µg/mL (≈ 227 µM).
Regarding `COc1c(C(C)C)ccc2c1CC[C@H]1[C@@H](O)CCC[C@]21C`, the MIC worked out at 100 µg/mL (≈ 347 µM) against Pseudomonas fluorescens, 100 µg/mL (≈ 347 µM) in the experiment on Staphylococcus aureus, 75 µg/mL (≈ 260 µM) in the experiment with Escherichia coli and 100 µg/mL (≈ 347 µM) in the experiment on Bacillus subtilis.
As to `COc1c(C(C)C)ccc2c1CC[C@H]1C(=O)CCC[C@]21C`, the MIC against Pseudomonas fluorescens amounted to 100 µg/mL (≈ 349 µM); with Staphylococcus aureus, 75 µg/mL (≈ 262 µM); against Escherichia coli, 75 µg/mL (≈ 262 µM); with Bacillus subtilis, 100 µg/mL (≈ 349 µM).
For `COc1c(C(C)C)ccc2c1CC[C@H]1C(=O)CCC[C@]21CO[N+](=O)[O-]`, the minimal inhibitory concentration (MIC) is 75 µg/mL (≈ 216 µM) against Pseudomonas fluorescens, 50 µg/mL (≈ 144 µM) against Staphylococcus aureus, 50 µg/mL (≈ 144 µM) against Escherichia coli and 25 µg/mL (≈ 72 µM) in the experiment with Bacillus subtilis.
Turning to `COC(=O)[C@]1(C)CCC[C@@]2(C)[C@H]1CC=C1C(=O)[C@@](O)(C(C)C)CC[C@@H]12`, the MIC in the experiment with Pseudomonas fluorescens is 100 µg/mL (≈ 287 µM); against Staphylococcus aureus, 75 µg/mL (≈ 215 µM); in the experiment with Escherichia coli, 75 µg/mL (≈ 215 µM); with Bacillus subtilis, 100 µg/mL (≈ 287 µM).
With `COC(=O)[C@]1(C)CCC[C@]2(C)c3ccc(C(C)C)c(N)c3CC[C@@H]12`, the minimum inhibitory concentration (MIC) was found to be 50 µg/mL (≈ 152 µM) against Pseudomonas fluorescens, 25 µg/mL (≈ 75.9 µM) against Staphylococcus aureus, 50 µg/mL (≈ 152 µM) against Escherichia coli and 50 µg/mL (≈ 152 µM) with Bacillus subtilis.
For the molecule `C=C1CCC[C@]2(C)c3ccc(C(C)C)c(OC)c3CC[C@@H]12`, the MIC came to 100 µg/mL (≈ 352 µM) against Pseudomonas fluorescens, 100 µg/mL (≈ 352 µM) against Staphylococcus aureus, 100 µg/mL (≈ 352 µM) against Escherichia coli and 75 µg/mL (≈ 264 µM) in the experiment with Bacillus subtilis.
On to `COC(=O)[C@]1(C)CCC[C@@]2(C)[C@H]1CC=C1[C@@H]2CC[C@](O)(C(C)C)[C@H]1O`, for which the minimum inhibitory concentration (MIC) against Pseudomonas fluorescens was 75 µg/mL (≈ 214 µM); against Staphylococcus aureus, 75 µg/mL (≈ 214 µM); in the experiment on Escherichia coli, 100 µg/mL (≈ 285 µM); in the experiment with Bacillus subtilis it was 75 µg/mL (≈ 214 µM).
`COC(=O)[C@]1(C)CCC[C@]2(C)c3ccc(C(C)C)c(OC)c3CC[C@@H]12`: the minimal inhibitory concentration (MIC) against Pseudomonas fluorescens was found to be 75 µg/mL (≈ 218 µM); against Staphylococcus aureus, 75 µg/mL (≈ 218 µM); against Escherichia coli, 100 µg/mL (≈ 290 µM); with Bacillus subtilis it was 75 µg/mL (≈ 218 µM).
As for `C=C1[C@H](O)CC[C@]2(C)c3ccc(C(C)C)c(OC)c3CC[C@@H]12`, the minimum inhibitory concentration (MIC) with Pseudomonas fluorescens, against Staphylococcus aureus, against Escherichia coli and in the experiment with Bacillus subtilis was 100 µg/mL (≈ 333 µM) each time.
Take `COc1c(C(C)C)ccc2c1CC[C@H]1[C@@H](O)CCC[C@]21CO[N+](=O)[O-]`: the minimum inhibitory concentration (MIC) came out at 25 µg/mL (≈ 71.5 µM) in the experiment on Pseudomonas fluorescens, 100 µg/mL (≈ 286 µM) in the experiment with Staphylococcus aureus, 100 µg/mL (≈ 286 µM) with Escherichia coli and 75 µg/mL (≈ 215 µM) in the experiment with Bacillus subtilis.
`COC(=O)[C@]1(C)CCC[C@]2(C)c3ccc(C(C)C)c(OC)c3C(=O)C[C@@H]12`: the MIC against Pseudomonas fluorescens is 50 µg/mL (≈ 139 µM); in the experiment with Staphylococcus aureus, 50 µg/mL (≈ 139 µM); with Escherichia coli, 25 µg/mL (≈ 69.7 µM); with Bacillus subtilis, 50 µg/mL (≈ 139 µM).
For `COc1c(C(C)C)ccc2c1CC[C@H]1[C@@H](CO)[C@H](O)CC[C@]21C`, the MIC in the experiment on Pseudomonas fluorescens turned out to be 50 µg/mL (≈ 157 µM); against Staphylococcus aureus, 75 µg/mL (≈ 236 µM); against Escherichia coli, 75 µg/mL (≈ 236 µM); against Bacillus subtilis, 100 µg/mL (≈ 314 µM).
Consider `C=C1[C@H](O[Si](C)(C)C(C)(C)C)CC[C@]2(C)c3ccccc3CC[C@@H]12`, for which the MIC was 75 µg/mL (≈ 219 µM) in the experiment with Pseudomonas fluorescens, 100 µg/mL (≈ 292 µM) in the experiment with Staphylococcus aureus, 75 µg/mL (≈ 219 µM) against Escherichia coli and 100 µg/mL (≈ 292 µM) against Bacillus subtilis.
Take `C=C1C(=O)CC[C@]2(C)c3ccc(C(C)C)c(OC)c3CC[C@@H]12`: the MIC in the experiment with Pseudomonas fluorescens came to 25 µg/mL (≈ 83.8 µM); in the experiment on Staphylococcus aureus, 25 µg/mL (≈ 83.8 µM); against Escherichia coli it was 6.3 µg/mL (≈ 21.1 µM); in the experiment on Bacillus subtilis it was 12.5 µg/mL (≈ 41.9 µM).
With `C=C1[C@@H]2CCc3c(ccc(C(C)C)c3OC)[C@@]2(C)CC[C@@]1(O)CO`, the minimum inhibitory concentration (MIC) against Pseudomonas fluorescens was found to be 25 µg/mL (≈ 75.7 µM); against Staphylococcus aureus it was 50 µg/mL (≈ 151 µM); with Escherichia coli it was 50 µg/mL (≈ 151 µM); in the experiment with Bacillus subtilis, 25 µg/mL (≈ 75.7 µM).
Turning to `C=C1C(CO)=CC[C@]2(C)c3ccc(C(C)C)c(OC)c3CC[C@@H]12`, the MIC in the experiment with Pseudomonas fluorescens was found to be 75 µg/mL (≈ 240 µM); in the experiment on Staphylococcus aureus, 75 µg/mL (≈ 240 µM); in the experiment on Escherichia coli, 100 µg/mL (≈ 320 µM); in the experiment on Bacillus subtilis it was 100 µg/mL (≈ 320 µM).
